Experimental findings from ChEMBL document CHEMBL3045657, “Synthesis and biological evaluation of naphthalene, furan and pyrrole based chalcones as cytotoxic and antimicrobial agents” (2012) are described below.

≈ marks a conversion by molar mass, not a printed value. Calls of active or inactive are those of the source. No cut-off for these calls is given here.

Holding throughout (format): functional
The subject of one assay is Pseudomonas aeruginosa. The experiment in a line: Antibacterial activity against Pseudomonas aeruginosa MTCC 2642 after 24 hr by serial tube dilution method.
The next assay relates to Salmonella typhi. Description: Antibacterial activity against Salmonella enterica subsp. enterica serovar Typhi MTCC 1251 after 24 hr by serial tube dilution method.
The subject of the next assay is Escherichia coli. Description: Antibacterial activity against Escherichia coli MTCC 82 after 24 hr by serial tube dilution method.
The next assay relates to Staphylococcus aureus. The experiment in a line: Antibacterial activity against Staphylococcus aureus MTCC 96 after 24 hr by serial tube dilution method.
A further assay concerns Bacillus subtilis. Description: Antibacterial activity against Bacillus subtilis MTCC 2451 after 24 hr by serial tube dilution method.
For the next assay, the system named is OVCAR. The experiment in a line: Cytotoxicity against Homo sapiens (human) OVCAR cells assessed as cell growth inhibition at 1 x 10^-5 M after 48 hr by SRB assay. Conditions: for inhibition of growth at 10 µM: read-out: GI.
A further assay deals with HEp-2. Description: Cytotoxicity against Homo sapiens (human) Hep2 cells assessed as cell growth inhibition at 1 x 10^-5 M after 48 hr by SRB assay. Conditions: for inhibition of growth at 10 µM: HEp-2, 48 h, read-out: GI. On the technique in general: The SRB assay estimates cell density from bound dye.
In the next assay the test system is IMR-32. Description: Cytotoxicity against Homo sapiens (human) IMR32 cells assessed as cell growth inhibition at 1 x 10^-5 M after 48 hr by SRB assay. Conditions: for inhibition of growth at 10 µM: IMR-32, 48 h, read-out: GI.
The subject of another assay is PC-3. Description: Cytotoxicity against Homo sapiens (human) PC3 cells assessed as cell growth inhibition at 1 x 10^-5 M after 48 hr by SRB assay. The conditions noted are these: for inhibition of growth at 10 µM: PC-3, 48 h, read-out: GI.

As for GENTAMICIN, the minimum inhibitory concentration (MIC) stood at 0.25 µg/mL with Pseudomonas aeruginosa; 0.2 µg/mL with Salmonella typhi; 0.25 µg/mL in the assay with Escherichia coli; 0.4 µg/mL in the assay on Staphylococcus aureus; 0.3 µg/mL with Bacillus subtilis.

As for `COc1ccc(/C=C/C(=O)c2ccc3ccccc3c2)cc1`, the inhibition of growth at 10 µM in the assay with OVCAR is 31%; in the assay on HEp-2, 29%; with IMR-32, 36%; in the assay with PC-3, 33%.

With `O=C(/C=C/c1cccc([N+](=O)[O-])c1)c1ccco1`, the inhibition of growth at 10 µM in the assay with OVCAR came out at 13%; with HEp-2 it was 16%. Also, the minimal inhibitory concentration (MIC) is 125 µg/mL (≈ 514 µM) in the assay with Pseudomonas aeruginosa (MTCC 2642, 24 h); 125 µg/mL (≈ 514 µM) in the assay on Escherichia coli (MTCC 82, 24 h); 125 µg/mL (≈ 514 µM) with Staphylococcus aureus (MTCC 96, 24 h); 125 µg/mL (≈ 514 µM) with Bacillus subtilis (MTCC 2451, 24 h). For the same compound, the “growth inhibition (GI)” value in the assay on IMR-32 and in the assay with PC-3 was “inactive” each time.

Consider `COc1ccc(OC)c(/C=C/C(=O)c2ccc3ccccc3c2)c1`, for which the inhibition of growth at 10 µM with OVCAR amounted to 52%; in the assay on HEp-2, 47%; with IMR-32 it was 51%; in the assay with PC-3, 49%. In addition, the MIC in the assay with Salmonella typhi (MTCC 1251, 24 h) was 250 µg/mL (≈ 785 µM); against Escherichia coli (MTCC 82, 24 h) it was 250 µg/mL (≈ 785 µM); in the assay with Staphylococcus aureus (MTCC 96, 24 h), 125 µg/mL (≈ 393 µM); with Bacillus subtilis (MTCC 2451, 24 h) it was 125 µg/mL (≈ 393 µM).

For `O=C(/C=C/c1cccc([N+](=O)[O-])c1)c1ccc2ccccc2c1`, the inhibition of growth at 10 µM worked out at 13% in the assay on OVCAR, 17% with HEp-2, 11% in the assay with IMR-32 and 16% with PC-3. For the same compound, the MIC against Escherichia coli (MTCC 82, 24 h) was determined as 250 µg/mL (≈ 824 µM); in the assay on Staphylococcus aureus (MTCC 96, 24 h), 125 µg/mL (≈ 412 µM).

In the case of `O=C(/C=C/c1ccco1)c1ccc2ccccc2c1`, the “growth inhibition (GI)” value with OVCAR was “inactive”. The MIC amounted to 250 µg/mL (≈ 1010 µM) with Pseudomonas aeruginosa (MTCC 2642, 24 h); 500 µg/mL (≈ 2010 µM) against Salmonella typhi (MTCC 1251, 24 h); 125 µg/mL (≈ 503 µM) with Staphylococcus aureus (MTCC 96, 24 h); 250 µg/mL (≈ 1010 µM) with Bacillus subtilis (MTCC 2451, 24 h). Moreover, the inhibition of growth at 10 µM is 21% with HEp-2, 13% in the assay on IMR-32 and 16% in the assay with PC-3.

With `O=C(/C=C/c1ccccc1)c1ccco1`, the “growth inhibition (GI)” value in the assay on OVCAR and in the assay on HEp-2 was “inactive” each time. The MIC against Staphylococcus aureus (MTCC 96, 24 h) amounted to 250 µg/mL (≈ 1260 µM); against Bacillus subtilis (MTCC 2451, 24 h), 250 µg/mL (≈ 1260 µM). Further, the inhibition of growth at 10 µM in the assay with IMR-32 came to 13%; with PC-3, 19%.

Consider `O=C(/C=C/c1ccccc1)c1ccc[nH]1`, for which the inhibition of growth at 10 µM in the assay with OVCAR stood at 18%; in the assay with HEp-2, 23%; in the assay with IMR-32, 14%; with PC-3 it was 22%. The minimal inhibitory concentration (MIC) was determined as 500 µg/mL (≈ 2540 µM) with Salmonella typhi (MTCC 1251, 24 h); 500 µg/mL (≈ 2540 µM) against Escherichia coli (MTCC 82, 24 h); 125 µg/mL (≈ 634 µM) against Staphylococcus aureus (MTCC 96, 24 h); 250 µg/mL (≈ 1270 µM) in the assay on Bacillus subtilis (MTCC 2451, 24 h).

On to `O=C(/C=C/c1ccc([N+](=O)[O-])cc1)c1ccc[nH]1`, for which the inhibition of growth at 10 µM in the assay with OVCAR amounted to 14%; with HEp-2, 13%; in the assay with IMR-32 it was 11%; in the assay with PC-3 it was 11%. Further, the minimal inhibitory concentration (MIC) was determined as 500 µg/mL (≈ 2060 µM) in the assay on Escherichia coli (MTCC 82, 24 h) and 250 µg/mL (≈ 1030 µM) against Staphylococcus aureus (MTCC 96, 24 h).

Take `O=C(/C=C/c1ccccc1)c1ccc2ccccc2c1`: the inhibition of growth at 10 µM in the assay with OVCAR was determined as 21%; with HEp-2, 27%; in the assay with IMR-32, 19%; in the assay on PC-3, 28%. Moreover, the minimal inhibitory concentration (MIC) in the assay with Pseudomonas aeruginosa (MTCC 2642, 24 h) was 500 µg/mL (≈ 1940 µM); with Escherichia coli (MTCC 82, 24 h), 500 µg/mL (≈ 1940 µM); against Staphylococcus aureus (MTCC 96, 24 h) it was 250 µg/mL (≈ 968 µM).

Regarding `COc1cccc(/C=C/C(=O)c2ccc[nH]2)c1OC`, the inhibition of growth at 10 µM in the assay on OVCAR was found to be 24%; in the assay with HEp-2 it was 33%; in the assay on IMR-32, 28%; with PC-3, 31%.

`O=C(/C=C/c1ccc2ccccc2c1)c1ccc2ccccc2c1`: the inhibition of growth at 10 µM in the assay on OVCAR stood at 76%; in the assay with HEp-2, 73%; in the assay with IMR-32 it was 77%; in the assay on PC-3 it was 79%. Moreover, the MIC with Pseudomonas aeruginosa (MTCC 2642, 24 h) was found to be 250 µg/mL (≈ 811 µM); in the assay with Escherichia coli (MTCC 82, 24 h) it was 125 µg/mL (≈ 405 µM); in the assay on Staphylococcus aureus (MTCC 96, 24 h), 62.5 µg/mL (≈ 203 µM); against Bacillus subtilis (MTCC 2451, 24 h), 125 µg/mL (≈ 405 µM).

One may read the MIC as the least concentration at which growth counts as inhibited.
